Values quoted from earlier work, collected in patent EP3196312B1, “EFFICIENT CONVERSION OF METHYLGLYOXAL INTO HYDROXYACETONE USING NOVEL ENZYMES AND APPLI CATIONS THEREOF” (Metabolic Explorer, priority 2016, dated 2017).

Assays:
[1] = target: T1, Escherichia coli YqhD (alcohol dehydrogenase, Uniprot Q46856), wild type, SEQ ID NO: 7 (Escherichia coli, UniProt Q46856); details: toward methylglyoxal and NADPH; as cited from WO 2011/012697
T1 sequence (Q46856 1-387): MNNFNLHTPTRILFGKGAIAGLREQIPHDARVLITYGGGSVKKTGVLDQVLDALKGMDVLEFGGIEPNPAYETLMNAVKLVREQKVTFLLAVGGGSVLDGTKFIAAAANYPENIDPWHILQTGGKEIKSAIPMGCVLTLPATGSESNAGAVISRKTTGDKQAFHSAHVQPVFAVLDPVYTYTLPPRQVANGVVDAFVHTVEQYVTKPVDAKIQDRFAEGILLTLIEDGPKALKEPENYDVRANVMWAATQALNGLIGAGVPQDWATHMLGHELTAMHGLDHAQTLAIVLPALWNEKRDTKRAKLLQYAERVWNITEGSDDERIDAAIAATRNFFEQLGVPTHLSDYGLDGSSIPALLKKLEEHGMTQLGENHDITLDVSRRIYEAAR

[2] = target: T2, Escherichia coli YqhD variant YqhD*(G149E), SEQ ID NO: 9 (Escherichia coli, UniProt Q46856, G149E); details: toward methylglyoxal and NADPH; as cited from WO 2011/012697
T2 sequence (Q46856 1-387 G149E): T1 sequence (Q46856 1-387)

CC(=O)C=O [methylglyoxal]
Km [1]: 2090 µM | Km [2]: 2920 µM
